Experimental findings from the METLIN SMRT retention time set (Domingo-Almenara et al. 2019) are described below.

A short description of the data set: gradient 5% acetonitrile 3 min, to 50% in 2 min, to 85% in 15 min, held 3 min, 100 µL/min. The settings on record: column: Zorbax Extend-C18 2.1 x 50 mm; eluents: water / acetonitrile, 0.1% formic acid. In outline: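 Values are retention times taken from adduct peaks that software picked and an analyst inspected. The pure standards were run as mixtures of ~100 molecules on HPLC linked to a quadrupole time-of-flight mass spectrometer, in positive and negative ionization mode. A Zorbax Extend-C18 column (2.1 × 50 mm, 1.8 μm) was used at 100 μL/min with water and acetonitrile, each including 0.1% formic acid.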
`COCCNC(=O)Cn1ccc2c(SCc3ccc(C)cc3)nccc21` returned an RP-LC retention time of 658 s.
The figure for `Cc1ccc(-c2nc3ncccn3c2Nc2ccc(C)c(Cl)c2)cc1` is 910 s; for `COc1ccc(-c2nc(-c3ccc4c(c3)ncn4CCC(=O)N3CCCC3)no2)cc1OC` it is 776 s; for `N#C/C(=C\c1ccc2ccccc2c1)C(=O)c1ccccc1` it is 1090 s.
Under `COC(=O)c1ccccc1NC(=O)c1cnc2sc(C)cn2c1=O` stands 759 s; under `O=C(Nc1cc(F)cc(F)c1)C1CCCN(c2ccnc(-c3ccc(F)cc3)n2)C1` (stereo not given), 761 s.
The figure for `CO[C@H]1C(=O)N(C(C)C)[C@H]1C1CCN(C(=O)c2ccco2)CC1` is 692 s; for `CC(C)Cn1ccc2c(cc(C(=O)Nc3cc(F)ccc3F)n2C)c1=O` it is 876 s; for `COc1ccc2oc(-c3ccncc3)cc(=O)c2c1` it is 701 s.
Molecule `CCCOc1ccc(C2NCCc3c2[nH]c2ccccc32)cc1OC` (stereo not given) returned an RP-LC retention time of 642 s.
Under `NC(=O)C1CCN(C(=O)CN2CCN(c3cccc(Cl)c3)CC2)CC1` stands 600 s; under `Cc1ccc(NC(=O)Cn2cnc3nc(N4CCCC(C(=O)NC5CC5)C4)sc3c2=O)cc1` (stereo not given), 674 s; under `CCc1ccc(NC(=O)c2cc(C)n3nccc3n2)cc1`, 1030 s.
The figure for `O=C(O)c1cnc(NCCc2cccs2)nc1-c1ccccn1` is 765 s; for `COc1cc(OC)cc(C(=O)N2CCC3(CC2)N=C(c2ccc(Br)cc2)C(=O)N3)c1` it is 907 s.
Molecule `COc1ccccc1CNC(=O)Cn1nc2cc(-c3ccccn3)nc(C)n2c1=O` registered an RP-LC retention time of 629 s.
Under `Cc1cc(N2CCOCC2)nc(N2CCN(S(=O)(=O)c3cc(C(C)C)ccc3C)CC2)n1` stands 803 s; under `O=C(NCc1nc(-c2ccc(NS(=O)(=O)c3ccc(Cl)cc3)cc2)no1)c1cccs1`, 909 s; under `O=C(Cc1cccs1)N1CCN(c2ccc(=O)n(-c3ccc(Cl)cc3)n2)CC1`, 804 s.
Under `Cc1nc(N2CCCC2)c2c(C(=O)Nc3cccc(Cl)c3)c(C)oc2n1` stands 852 s.
Under `CC(NC(=O)c1cn2cc(Cl)ccc2n1)c1ccc(F)cc1` (stereo not given) stands 836 s; under `O=C(Cn1c(=O)ccc2cc(S(=O)(=O)N3CCCC3)ccc21)N1CCN(c2ncccn2)CC1`, 708 s.
For the molecule `O=C(NC1CC1)c1ccnc(N2CCNC(c3ccccc3)C2)c1` (stereo not given), the RP-LC retention time was 583 s.
Under `COc1cc2c(cc1CNC(=O)Cn1cc(C#N)c3ccccc31)OCCCO2` stands 853 s; under `Cc1nc(-c2nnn(-c3ccccc3)c2C)no1`, 769 s.
Under `COCCN1CCC2(CCC1=O)CCN(C(=O)Nc1ccc(Br)cc1)CC2` stands 740 s; under `CSc1cccc(Nc2c(C(=O)N3CCSCC3)cnc3nc(C)ccc23)c1`, 581 s; under `Fc1ccc(-c2ccc(CNCC3CCNCC3)o2)cc1Cl`, 582 s.
Under `CCc1nc(-c2csc(S(=O)(=O)N3CCC(C(=O)NC4CCCCCCC4)CC3)c2)no1` stands 1070 s; under `CCN1CCN(C(=O)c2ccc(-c3ccc4c(c3)CCN4C(C)=O)cc2)CC1`, 607 s.
`COc1cccc(NC(=O)C2CC(=O)N(c3n[nH]c4cccc(F)c34)C2)c1` (stereo not given) had an RP-LC retention time of 737 s.
Regarding `O=C(Cn1cccc1-c1nc(-c2ccc3c(c2)OCO3)no1)N1CCCc2ccccc21`, the RP-LC retention time came to 1120 s.
Under `COc1ccc(OC)c(NC(=O)NC2CCN(c3ccccc3)C2=O)c1` (stereo not given) stands 788 s.
`COc1ccc(S(=O)(=O)N2CCC(n3cnnc3-c3ccccc3)CC2)cc1Cl` showed an RP-LC retention time of 815 s.
Under `O=C(NCc1cc(F)ccc1F)C1CN(S(=O)(=O)c2cccnc2)CC12CCCCC2` (stereo not given) stands 919 s.
Turning to `COc1ccc(S(=O)(=O)N2CCC(c3noc(C4CC4)n3)C2)cc1` (stereo not given), the RP-LC retention time was determined as 847 s.
The molecule `COc1ccc(Cc2nc3ccccc3n2CC(N)=O)cc1OC` gave an RP-LC retention time of 566 s.
The figure for `CCOC(=O)Cc1csc(NC(=O)C2CC(=O)N(c3n[nH]c4ccccc34)C2)n1` (stereo not given) is 689 s; for `CC(=O)Nc1cccc2c(C(=O)NCCC(C)C)ccnc12` it is 777 s; for `CC(C)Cn1cc(CCNS(=O)(=O)c2ccccc2Cl)c2cccnc21` it is 922 s.
For `Cn1cnc(S(=O)(=O)N2[C@H]3CC[C@@H]2c2cnc(-c4ccccc4)nc2C3)c1`, the RP-LC retention time was found to be 763 s.
Regarding `CC1CCN(C(=O)C2=NNc3ccccc3S2(=O)=O)CC1`, the RP-LC retention time turned out to be 740 s.
Under `CCn1c(N)c(C(=O)NC)c(=O)c2ccc(C#C[C@@](C)(O)COC)nc21` stands 698 s; under `CC(C)c1nc(C2Cc3ccccc3N2C(=O)NCc2ccco2)no1` (stereo not given), 889 s; under `Cc1cc(C)c2c(N3CCSCC3)nc(C(=O)NCC3CC3)nc2n1`, 653 s.
Under `CCN(CC)S(=O)(=O)N1CCC(C(=O)NCCN2CCOCC2)CC1` stands 579 s; under `CCC(=O)Nc1ccc(S(=O)(=O)N2CCC(N3CCOCC3)CC2)cc1`, 575 s.
The figure for `CCCN(CC1CCOC1)C(=O)C1CCCCC1` (stereo not given) is 827 s.
Molecule `COc1cc2c3c(n(C)c(=O)c2cc1OC)-c1cc2c(cc1C3=O)OCO2` registered an RP-LC retention time of 840 s.
Turning to `CCCCNC(=O)CCc1cc2cc(OC)ccc2[nH]c1=O`, the RP-LC retention time worked out at 664 s.
Regarding `Cc1ccc(CNC(=O)c2ccc3c(c2)CC(=O)N3C)cc1`, the RP-LC retention time was 730 s.
For `COc1ccc(-c2cn3cccnc3n2)cc1NS(=O)(=O)c1ccc(Br)cc1`, the RP-LC retention time is 721 s.
Under `Cc1ccc(-n2c(=O)c3c(cc(C)n3C)n(CC(=O)Nc3cccc(Br)c3)c2=O)cc1` stands 883 s; under `CN(C)C(=O)c1cc2c(s1)CCC(C(=O)NCCc1cccnc1)C2` (stereo not given), 543 s.
The figure for `COc1ccc(Cl)cc1NC(=O)C1CCN(S(=O)(=O)c2ccc3c(c2)NC(=O)CO3)CC1` is 880 s.
Consider `Cc1nc(-c2cn(-c3cccc(F)c3)nn2)no1`, for which the RP-LC retention time turned out to be 805 s.
Under `COc1ccc(NC(=O)Cn2c(=O)n(-c3ccc(C)cc3)c3ncccc32)cc1OC` stands 802 s; under `CCOC(=O)c1c(C)oc2nc(C)nc(NCc3ccc(OC)cc3)c12`, 1080 s; under `CC(CCc1ccccc1)NC(=O)Cn1c(=O)n(C(C)C)c2ccc(S(=O)(=O)N3CCCC3)cc21` (stereo not given), 932 s.
The figure for `COCC(=O)N(CC(=O)N1CCc2sccc2C1COc1ccccc1F)CC(C)C` (stereo not given) is 900 s; for `CCCC(C)C(=O)NCCc1nc2cccnc2n1C` (stereo not given) it is 593 s.
`Cn1cc(-c2cc3n(n2)CCCN3C(=O)CCC(=O)N2CCCCC2)c2ccccc21` yielded an RP-LC retention time of 753 s.
Under `CC(C)N1C(=O)c2cccnc2Sc2cc(NC(=O)c3ccccc3Cl)ccc21` stands 871 s.
The figure for `Clc1ccc(-c2nc3ccc(Cl)cn3c2Nc2ccc3c(c2)OCO3)cc1` is 926 s; for `COC(=O)c1c(-c2ccccc2)noc1N1CCOCC1` it is 860 s.
The figure for `Cc1nnc(-c2ccc3ccn(CC(=O)N4CCN(c5ccc(F)cc5)CC4)c3c2)o1` is 827 s; for `CN1C(=O)c2cc(S(=O)(=O)Nc3ccccc3)ccc2Oc2cccnc21` it is 862 s.
The molecule `O=C(NCCC1CCN(S(=O)(=O)c2ccccc2)CC1)Nc1ccc(F)cc1F` showed an RP-LC retention time of 910 s.
The figure for `CCOC(=O)c1c(C)[nH]c(C(=O)N2CCC(CC(=O)NC3CCCCCC3)CC2)c1C` is 835 s; for `O=C(NCCn1c(=O)n(Cc2ccccc2)c2cccnc21)c1ccccn1` it is 719 s; for `COc1ccc(N2CCN(C(=O)c3cc(S(=O)(=O)N4CCC(C)CC4)cn3C)CC2)cc1` it is 923 s.
The figure for `CCn1c(=O)c2ccccc2n(Cc2nc(-c3cccc(C)c3)no2)c1=O` is 1070 s; for `Cc1ccc(NC(=O)C2CCc3nc(N4CCCCC4)ncc3C2)cc1` (stereo not given) it is 822 s.
The figure for `CCOC(=O)c1nc(Nc2cc(C)ccc2C)c2ccccc2n1` is 870 s; for `CN1C(=O)CCc2cc(NC(=O)Cc3ccccc3Cl)ccc21` it is 755 s.
In turn, `CC(C)NC(=O)CN1C(=O)COc2ccc(C(=O)N3CCc4ccccc4C3)cc21` gave an RP-LC retention time of 744 s.
`COc1ccccc1CNCc1ccc2c(c1)n(C)c(=O)n2C` had an RP-LC retention time of 591 s.
The figure for `Cn1nc(-c2nnc(-c3ccccc3)o2)c2c1CCN(S(=O)(=O)c1cccc3nsnc13)C2` is 905 s; for `CCn1nccc1C(=O)Nc1nc(-c2ccc(OC)cc2OC)cs1` it is 926 s.
Regarding `NS(=O)(=O)c1ccc(NC(=O)CC2Sc3ccc(C(F)(F)F)cc3NC2=O)cc1` (stereo not given), the RP-LC retention time turned out to be 722 s.
